B1: K27A: recombinant v.1 fHbp (gene from MC58) with residue 27 changed to alanine (protein)
chain: CSSGGGGVAADIGAGLADALTAPLDHADKGLQSLTLDQSVRKNEKLKLAAQGAEKTYGNGDSLNTGKLKNDKVSRFDFIRQIEVDGQLITLESGEFQVYKQSHSALTAFQTEQIQDSEHSGKMVAKRQFRIGDIAGEHTSFDKLPEGGRATYRGTAFGSDDAGGKLTYTIDFAAKQGNGKIEHLKSPELNVDLAAADIKPDGKRHAVISGSVLYNQAEKGSYSLGIFGGKAQEVAGSAEVKTVNGIRHIGLAAKQHHHHHH

Experiments:
JAR 4 [1] = test: ELISA binding of native fHbp sequence peptides; design: species or system murine; settings: peptides from the native v.1 fHbp sequence
JAR 4 [2] = test: ELISA binding of mAb to site-specific mutant recombinant v.1 fHbp; design: species or system murine; settings: v.1 fHbp (gene from MC58) alanine mutant
Procedure: Site-specific mutagenesis was used to test the role of amino acid residues involved in the JAR 4 anti-fHbp mAb epitope. Mutagenesis was performed using the QuikChange II kit (Stratagene) using 10 ng of plasmid template and the manufacturer's protocols. For testing residues putatively involved in mAb epitopes, mutagenesis reactions were performed on pET21-based plasmids encoding a wild-type fHbp gene. Site-specific mutagenesis was used to introduce the H26A and K27A substitution into the pET21 plasmid encoding v.1 fHbp from MC58. Mutant fHbp genes were confirmed by DNA sequencing as described for the wild-type plasmids, above.
Site-directed mutagenesis of residues 25, 26 and 27 was performed, each of which was individually changed to alanine in fHbp from the v.1 group (gene from MC58). These mutants were created using the non-signal containing sequence from strain MC58 (MVAAD . . . GLAAKQ) (SEQ ID NO:73), and are referred to as D25A, H26A and K27A, respectively. The amino acid sequences of the portions of the A domains of these mutants is provided in FIG. 7, Panel A. Results of the binding experiment between mutated fHbp and the various JAR mAbs are shown in FIG. 6.

| Molecule | binding to JAR 4 by ELISA (JAR 4 [1]) | JAR 4 binding compared with wild-type recombinant fHbp (JAR 4 [2]) |
| --- | --- | --- |
| ADALTAPLDHKDK [SEQ ID NO: 32] | no detectable binding |  |
| DHKDKGLQSLTLD [SEQ ID NO: 33] | no detectable binding |  |
| B1 |  | eliminated detectable JAR 4 binding |

Reference: US8470340B2, “Peptides presenting an epitope of a domain of factor H binding protein and methods of use” (priority 2008, dated 2013)
